Legend:
[1] = biological target: T1, Purified recombinant ADAMTS-7 (rat prodomain/human catalytic domain, SEQ ID No. 01 or 02) (Homo sapiens, UniProt Q9UKP4); assay: Assay for ADAMTS-7 enzymatic activity (FRET substrate cleavage); format: biochemical; conditions: FRET substrate SEQ ID No. 11, 120 min at 32° C.; read-out: ADAMTS7-IC50
T1 construct: rat ADAMTS-7 signal peptide + prodomain (rat 1-217, Q1EHB3) (N); 2xStrep tag (C); 6xHis tag (C); made in house; host or cells: Expi293 cells
T1 sequence (Q9UKP4 237-537): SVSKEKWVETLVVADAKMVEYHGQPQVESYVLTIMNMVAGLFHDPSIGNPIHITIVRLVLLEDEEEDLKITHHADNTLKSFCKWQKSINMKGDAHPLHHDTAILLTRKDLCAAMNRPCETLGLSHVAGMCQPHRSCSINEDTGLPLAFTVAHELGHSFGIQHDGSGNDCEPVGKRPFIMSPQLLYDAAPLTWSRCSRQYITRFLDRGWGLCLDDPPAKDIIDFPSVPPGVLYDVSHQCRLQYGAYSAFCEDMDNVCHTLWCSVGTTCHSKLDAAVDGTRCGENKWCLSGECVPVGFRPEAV
How it was run: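 About 20 nM enzyme in 20 mM HEPES pH 8.0, 150 mM NaCl, 5 mM CaCl2, 0.004% Brij and 10 μM ZnCl2 was mixed with compound in DMSO and a QXL520-quenched FRET peptide from thrombospondin-1 (275-289). After 120 min at 32 °C, fluorescence was read at 485/520 nm. IC50 came from percent inhibition versus concentration.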

ADAMTS4 = biological target: T2, ADAMTS4 (Homo sapiens, UniProt O75173); assay: Selectivity assay for ADAMTS-7 modulators (FRET), ADAMTS4; format: biochemical; conditions: 50 nM enzyme (R&D 4307-AD), 1 μM Dabcyl/Edans FRET substrate, 120 min at 32° C.
T2 construct: purchased R&D 4307-AD
T2 sequence (O75173 213-685 limits assumed): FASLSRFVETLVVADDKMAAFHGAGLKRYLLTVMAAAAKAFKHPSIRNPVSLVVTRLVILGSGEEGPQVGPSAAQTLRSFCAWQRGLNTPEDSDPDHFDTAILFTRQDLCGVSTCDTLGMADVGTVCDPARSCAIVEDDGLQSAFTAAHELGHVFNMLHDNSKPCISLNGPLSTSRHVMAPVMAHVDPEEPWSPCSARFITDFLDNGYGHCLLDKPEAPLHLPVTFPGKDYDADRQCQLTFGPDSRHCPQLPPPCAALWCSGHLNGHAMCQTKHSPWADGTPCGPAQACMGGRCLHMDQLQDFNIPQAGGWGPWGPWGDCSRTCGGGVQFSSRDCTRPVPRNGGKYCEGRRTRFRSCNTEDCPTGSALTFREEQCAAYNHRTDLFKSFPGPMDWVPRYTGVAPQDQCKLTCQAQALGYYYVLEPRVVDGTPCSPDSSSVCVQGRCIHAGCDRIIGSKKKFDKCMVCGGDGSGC
How it was run: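 Enzyme in 50 mM Tris pH 7.5, 150 mM NaCl, 10 mM CaCl2, 0.05% Brij, preincubated with compound in DMSO; reaction started with FRET substrate. Fluorescence increase read after 120 min at 32° C; IC50 from percent inhibition versus compound concentration.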

SMILES	IC50 [1] [nM]	IC50 (ADAMTS4) [nM]
O=C1NC(=O)[C@](CNC(=O)c2cnn(-c3cccc(F)c3)n2)(C2CC2)N1 [Example 1, N-{[(4R)-4-cyclopropyl-2,5-dioxoimidazolidin-4-yl]methyl}-2-(3-fluorophenyl)-2H-1,2,3-triazole-4-carboxamide]	13	580
CC(C)(C)C1(CNC(=O)c2cnn(-c3ccc(F)cc3)n2)NC(=O)NC1=O (stereo not drawn) [Example 3, ent-N-{[4-tert-butyl-2,5-dioxoimidazolidin-4-yl]methyl}-2-(4-fluorophenyl)-2H-1,2,3-triazole-4-carboxamide]	79	2200
O=C1NC(=O)[C@](CNC(=O)c2cnn(-c3ccc(C(F)(F)F)c(F)c3)n2)(C2CC2)N1 [Example 5, N-{[(4R)-4-cyclopropyl-2,5-dioxoimidazolidin-4-yl]methyl}-2-[3-fluoro-4-(trifluoromethyl)phenyl]-2H-1,2,3-triazole-4-carboxamide]	120	4600
O=C1NC(=O)[C@](CNC(=O)c2cnn(-c3ccc(F)c(F)c3)n2)(C2CC2)N1 [Example 8, N-{[(4R)-4-cyclopropyl-2,5-dioxoimidazolidin-4-yl]methyl}-2-(3,4-difluorophenyl)-2H-1,2,3-triazole-4-carboxamide]	7	175
O=C1NC(=O)[C@](CNC(=O)c2cnn(-c3ccc(Cl)cc3)n2)(C2CC2)N1 [Example 9, 2-(4-chlorophenyl)-N-{[(4R)-4-cyclopropyl-2,5-dioxoimidazolidin-4-yl]methyl}-2H-1,2,3-triazole-4-carboxamide]	26	480
O=C1NC(=O)[C@](CNC(=O)c2cnn(-c3cccc(Cl)c3)n2)(C2CC2)N1 [Example 10, 2-(3-chlorophenyl)-N-{[(4R)-4-cyclopropyl-2,5-dioxoimidazolidin-4-yl]methyl}-2H-1,2,3-triazole-4-carboxamide]	21	450
O=C1NC(=O)[C@](CNC(=O)c2cnn(-c3ccccc3Cl)n2)(C2CC2)N1 [Example 11, 2-(2-chlorophenyl)-N-{[(4R)-4-cyclopropyl-2,5-dioxoimidazolidin-4-yl]methyl}-2H-1,2,3-triazole-4-carboxamide]	470	10000
Cc1ccccc1-n1ncc(C(=O)NC[C@@]2(C3CC3)NC(=O)NC2=O)n1 [Example 12, N-{[(4R)-4-cyclopropyl-2,5-dioxoimidazolidin-4-yl]methyl}-2-(2-methylphenyl)-2H-1,2,3-triazole-4-carboxamide]	980	12000
Cc1ccc(-n2ncc(C(=O)NC[C@@]3(C4CC4)NC(=O)NC3=O)n2)cc1 [Example 13, N-{[(4R)-4-cyclopropyl-2,5-dioxoimidazolidin-4-yl]methyl}-2-(4-methylphenyl)-2H-1,2,3-triazole-4-carboxamide]	47	950
N#Cc1ccc(-n2ncc(C(=O)NC[C@@]3(C4CC4)NC(=O)NC3=O)n2)cc1 [Example 14, 2-(4-cyanophenyl)-N-{[(4R)-4-cyclopropyl-2,5-dioxoimidazolidin-4-yl]methyl}-2H-1,2,3-triazole-4-carboxamide]	400	17000
N#Cc1cccc(-n2ncc(C(=O)NC[C@@]3(C4CC4)NC(=O)NC3=O)n2)c1 [Example 17, 2-(3-cyanophenyl)-N-{[(4R)-4-cyclopropyl-2,5-dioxoimidazolidin-4-yl]methyl}-2H-1,2,3-triazole-4-carboxamide]	32	600
Cc1cccc(-n2ncc(C(=O)NC[C@@]3(C4CC4)NC(=O)NC3=O)n2)c1 [Example 18, N-{[(4R)-4-cyclopropyl-2,5-dioxoimidazolidin-4-yl]methyl}-2-(3-methylphenyl)-2H-1,2,3-triazole-4-carboxamide]	170	2200
COc1ccc(-n2ncc(C(=O)NC[C@@]3(C4CC4)NC(=O)NC3=O)n2)cc1 [Example 27, N-{[(4R)-4-cyclopropyl-2,5-dioxoimidazolidin-4-yl]methyl}-2-(4-methoxyphenyl)-2H-1,2,3-triazole-4-carboxamide]	100	6000
CS(=O)(=O)c1ccc(-n2ncc(C(=O)NC[C@@]3(C4CC4)NC(=O)NC3=O)n2)cc1 [Example 28, N-{[(4R)-4-cyclopropyl-2,5-dioxoimidazolidin-4-yl]methyl}-2-[4-(methylsulfonyl)phenyl]-2H-1,2,3-triazole-4-carboxamide]	870	67000

More lines, now with the values ahead:

IC50 [1] [nM]	IC50 (ADAMTS4) [nM]	SMILES
2	41	Cn1ccnc1C1(CNC(=O)c2cnn(-c3ccc(Cl)c(F)c3)n2)NC(=O)NC1=O (single isomer, unassigned; ent-2) [Example 145, ent-2-(4-chloro-3-fluorophenyl)-N-{[4-(1-methyl-1H-imidazol-2-yl)-2,5-dioxoimidazolidin-4-yl]methyl}-2H-1,2,3-triazole-4-carboxamide]
3	46	Cn1ccnc1C1(CNC(=O)c2cnn(-c3ccc(F)c(F)c3)n2)NC(=O)NC1=O (single isomer, unassigned; ent-2) [Example 147, ent-2-(3,4-difluorophenyl)-N-{[4-(1-methyl-1H-imidazol-2-yl)-2,5-dioxoimidazolidin-4-yl]methyl}2H-1,2,3-triazole-4-carboxamide]
83	8900	CC1(CNC(=O)c2cnn(-c3ccc(F)cc3)n2)NC(=O)NC1=O (single isomer, unassigned; ent-2) [Example 153, ent-2-(4-fluorophenyl)-N-[(4-methyl-2,5-dioxoimidazolidin-4-yl)methyl]-2H-1,2,3-triazole-4-carboxamide]
5	250	O=C1NC(=O)[C@](CNC(=O)c2cnn(-c3ccc(F)c(Cl)c3)n2)(C2CC2)N1 [Example 29, 2-(3-chloro-4-fluorophenyl)-N-{[(4R)-4-cyclopropyl-2,5-dioxoimidazolidin-4-yl]methyl}-2H-1,2,3-triazole-4-carboxamide]
12	500	O=C1NC(=O)[C@](CNC(=O)c2cnn(-c3ccc(Cl)c(F)c3)n2)(C2CC2)N1 [Example 30, 2-(4-chloro-3-fluorophenyl)-N-{[(4R)-4-cyclopropyl-2,5-dioxoimidazolidin-4-yl]methyl}-2H-1,2,3-triazole-4-carboxamide]
41	4250	O=C1NC(=O)[C@](CNC(=O)c2cnn(-c3ccc(F)cc3F)n2)(C2CC2)N1 [Example 31, N-{[(4R)-4-cyclopropyl-2,5-dioxoimidazolidin-4-yl]methyl}-2-(2,4-difluorophenyl)-2H-1,2,3-triazole-4-carboxamide]
35	910	O=C1NC(=O)[C@](CNC(=O)c2cnn(-c3ccc(Cl)c(Cl)c3)n2)(C2CC2)N1 [Example 32, N-{[(4R)-4-cyclopropyl-2,5-dioxoimidazolidin-4-yl]methyl}-2-(3,4-dichlorophenyl)-2H-1,2,3-triazole-4-carboxamide]
58	1400	O=C1NC(=O)[C@](CNC(=O)c2cnn(-c3ccc(Br)cc3)n2)(C2CC2)N1 [Example 33, 2-(4-bromophenyl)-N-{[(4R)-4-cyclopropyl-2,5-dioxoimidazolidin-4-yl]methyl}-2H-1,2,3-triazole-4-carboxamide]
26	1420	O=C1NC(=O)[C@](CNC(=O)c2cnn(-c3ccc(F)cc3)n2)(C2CC2)N1 [Example 34, N-{[(4R)-4-cyclopropyl-2,5-dioxoimidazolidin-4-yl]methyl}-2-(4-fluorophenyl)-2H-1,2,3-triazole-4-carboxamide]
74	3100	O=C1NC(=O)[C@](CNC(=O)c2cnn(-c3cccc(F)c3F)n2)(C2CC2)N1 [Example 35, N-{[(4R)-4-cyclopropyl-2,5-dioxoimidazolidin-4-yl]methyl}-2-(2,3-difluorophenyl)-2H-1,2,3-triazole-4-carboxamide]
110	5500	O=C1NC(=O)[C@](CNC(=O)c2cnn(-c3cc(F)ccc3F)n2)(C2CC2)N1 [Example 36, N-{[(4R)-4-cyclopropyl-2,5-dioxoimidazolidin-4-yl]methyl}-2-(2,5-difluorophenyl)-2H-1,2,3-triazole-4-carboxamide]

From US20230027985A1, “SUBSTITUTED HYDANTOINAMIDES AS ADAMTS7 ANTAGONISTS” (Bayer Aktiengesellschaft, priority 2019, published 2023)
